The source of these data is ChEMBL document CHEMBL1157637, “Potent DNA-directed alkylating agents: Synthesis and biological activity of phenyl N-mustard-quinoline conjugates having a urea or hydrazinecarboxamide linker” (Bioorg Med Chem, 2010).

Active and inactive are the calls of the source. No cut-off for these calls is given here.

For series [1], the system named is MX1. The series can be described thus: Cytotoxicity against human MX1 cells after 72 hrs by SRB assay. It counts as functional, cell-based. To be noted: MX1, 72 h. For orientation: Sulforhodamine B stains cellular protein and so reports cell mass.
Series [2] is described as follows: Metabolic stability in rat plasma assessed as half life. It counts as ADME, cell-free.
The test system of series [3] is CCRF-CEM. The experiment in a line: Cytotoxicity against vinblastine-resistant human CCRF-CEM cells after 72 hrs by XTT assay. The series is classed as functional, cell-based.
For series [4], the system named is MX1. The experiment in a line: Antitumor activity against human MX1 cells xenografted in nu/nu nude mouse assessed as complete tumor remission at 150 mg/kg, iv administered as injection in Q2D x 5 schedule measured on day 70. The series is classed as functional, organism-based. The arrangement: dose 150 mg/kg. A general note: In xenograft studies the graft and the host belong to different species.

Series [5] has as its system CCRF-CEM. The series can be described thus: Selectivity ratio of IC50 for taxol-resistant human CCRF-CEM cells to IC50 for human CCRF-CEM cells. The series is classed as functional.
Series [6] relates to Mus musculus. The experiment in a line: Toxicity in nu/nu nude mouse assessed as body weight loss at 150 mg/kg, iv administered as injection in Q2D x 5 schedule measured on day 18. To be noted: in vivo. It counts as organism-based. The arrangement: dose 150 mg/kg, route intravenous.
A short description of series [7]: Cytotoxicity against human H1299 cells after 72 hrs by alamar blue assay. The series is classed as functional, cell-based. As to conditions: NCI-H1299, 72 h.
Series [8] deals with CCRF-CEM. The series can be described thus: Cytotoxicity against human CCRF-CEM cells after 72 hrs by XTT assay. It counts as functional, cell-based.
The test system of a further series is HCT-116. The series can be described thus: Cytotoxicity against human HCT116 cells after 72 hrs by SRB assay. The series is classed as functional, cell-based. To be noted: HCT-116, 72 h.
The nature of series [9]: Cytotoxicity against human CL1-0 cells after 72 hrs by alamar blue assay. The series is classed as functional, cell-based. As to conditions: CL1-0, 72 h. In general terms: Resazurin is reduced to fluorescent resorufin, in cell work by metabolically active cells.
A further series concerns MCF7. The series can be described thus: Cytotoxicity against human MCF7 cells after 72 hrs by alamar blue assay. The series is classed as functional, cell-based. To be noted: MCF7, 72 h.
Series [10] has as its system CCRF-CEM. The experiment in a line: Cytotoxicity against taxol-resistant human CCRF-CEM cells after 72 hrs by XTT assay. The series is classed as functional, cell-based.
For series [11], the system named is Mus musculus. The series can be described thus: Toxicity in nu/nu nude mouse assessed as body weight loss at 100 mg/kg, iv administered as injection in Q2D x 6 schedule. It counts as organism-based. The arrangement: dose 100 mg/kg, route intravenous. To be noted: in vivo.
A short description of series [12]: Cytotoxicity against human CL1-5 cells after 72 hrs by alamar blue assay. As to conditions: CL1-5, 72 h. The series is classed as functional, cell-based.
Series [13] relates to Mus musculus. The series can be described thus: Toxicity in nu/nu nude mouse assessed as body weight loss at 150 mg/kg, iv administered as injection in Q2D x 5 schedule measured on day 16. It counts as organism-based. The arrangement: dose 150 mg/kg, route intravenous. To be noted: in vivo.
A further series relates to NCI/ADR-RES. The series can be described thus: Antitumor activity against human MCF7/ADR cells xenografted in nu/nu nude mouse at 100 mg/kg, iv administered as injection in Q2D x 6 schedule. The series is classed as functional, organism-based. Also noted: dose 100 mg/kg.
Another series deals with PC-3. The series can be described thus: Cytotoxicity against human PC3 cells after 72 hrs by alamar blue assay. It counts as functional, cell-based. As to conditions: PC-3, 72 h.
In series [14] the test system is MX1. The experiment in a line: Antitumor activity against human MX1 cells xenografted in nu/nu nude mouse assessed as complete tumor remission at 150 mg/kg, iv administered as injection in Q2D x 5 schedule measured on day 16. The arrangement: dose 150 mg/kg. It counts as functional, organism-based.
The test system of series [15] is CCRF-CEM. The series can be described thus: Selectivity ratio of IC50 for vinblastine-resistant human CCRF-CEM cells to IC50 for human CCRF-CEM cells. The series is classed as functional.
Series [16] deals with Nucleic Acid. The experiment in a line: Binding affinity to pEGFP-N1 DNA assessed as formation of interstrand cross-links with DNA by alkaline gel shift assay. The series is classed as nucleic-acid assay.
In series [17] the test system is Nucleic Acid. The series can be described thus: Binding affinity to DNA in human H1299 cells assessed as formation of DNA cross-links at 10 uM followed by irradiation by modified single cell gel electrophoresis comet assay. The series is classed as cell-based.
The test system of series [18] is Nucleic Acid. The series can be described thus: Binding affinity to DNA in human H1299 cells assessed as formation of DNA cross-links after irradiation by modified single cell gel electrophoresis comet assay. The series is classed as cell-based.
Series [19] relates to MX1. The experiment in a line: Antitumor activity against human MX1 cells xenografted in nu/nu nude mouse assessed as complete tumor remission at 100 mg/kg, iv administered as injection in Q2D x 5 schedule measured on day 18. The series is classed as functional, organism-based. The arrangement: dose 100 mg/kg.
Series [20] has as its system Mus musculus. The series can be described thus: Toxicity in nu/nu nude mouse assessed as body weight loss at 100 mg/kg, iv administered as injection in Q2D x 5 schedule measured on day 16. Also noted: dose 100 mg/kg, route intravenous. To be noted: in vivo. It counts as organism-based.
Series [21] relates to MX1. The experiment in a line: Antitumor activity against human MX1 cells xenografted in nu/nu nude mouse assessed as complete tumor remission at 100 mg/kg, iv administered as injection in Q2D x 5 schedule measured on day 70. The series is classed as functional, organism-based. Also noted: dose 100 mg/kg.
Series [22] deals with Nucleic Acid. The series can be described thus: Binding affinity to DNA in human H1299 cells assessed as formation of DNA cross-links at 200 uM followed by irradiation by modified single cell gel electrophoresis comet assay. It counts as cell-based.

One may read the IC50 as the concentration at which inhibition is half-maximal. Read a low IC50 as inhibition by little substance. Broadly, the half-life is the time in which the quantity being followed falls by half. For `Cc1cc(NC(=O)Nc2ccc(N(CCCl)CCCl)cc2)c2ccccc2n1`, the IC50 is 0.343 µM in the series on MX1 [1]; 0.664 µM with CCRF-CEM [3]; 1.98 µM in series [7]; 0.193 µM in the series with CCRF-CEM [8]; 1.42 µM with HCT-116; 9.02 µM in [9]. Moreover, the IC50 turned out to be 9.08 µM in the series with MCF7, 0.429 µM in the series on CCRF-CEM [10], 9.45 µM in series [12] and 9.52 µM in the series on PC-3. In addition, in [2], the half-life is 16.5 h. In addition, the outcome in the series on MX1 [4], with NCI/ADR-RES, in the series on MX1 [14] and in the series with Nucleic Acid [16] was Active. The “Ratio IC50” value in the series on CCRF-CEM [5] stood at 2.2; with CCRF-CEM [15], 3.4. The Activity result with Mus musculus [6] is “Non-toxic”; with Mus musculus [11], “Non-toxic”; with Mus musculus [13], 2%; in the series on Nucleic Acid [17] it was 31.3%; with Nucleic Acid [18], “Dose-dependent effect”.

Turning to `COc1cccc(-c2cc(NC(=O)Nc3ccc(N(CCCl)CCCl)cc3)c3cc(OC)ccc3n2)c1`, the outcome with MX1 [19] and in the series on MX1 [21] was Active. Also, the IC50 in the series with MX1 [1] was found to be 1.83 µM; with CCRF-CEM [3], 0.557 µM; in [7] it was 5.69 µM; with CCRF-CEM [8] it was 0.362 µM; in the series on HCT-116, 3.69 µM; in series [9], 4.73 µM. The IC50 in the series on MCF7 was determined as 3.04 µM; in the series on CCRF-CEM [10], 0.588 µM; in series [12] it was 3.82 µM; in the series on PC-3, 5.88 µM. In addition, the Activity in the series on Mus musculus [20] was 13%. Moreover, the “Ratio IC50” value in the series with CCRF-CEM [5] is recorded as 1.62; with CCRF-CEM [15] it was 1.53.

Take `O=C(NNc1ccc(N(CCCl)CCCl)cc1)Nc1cc(-c2ccccc2)nc2ccccc12`: the IC50 with MX1 [1] stood at 1.78 µM; in the series on CCRF-CEM [3], 1.22 µM; in [7], 4.38 µM; with CCRF-CEM [8], 0.578 µM; with HCT-116, 1.26 µM; in [9], 4.07 µM. Moreover, the IC50 is 6.24 µM in the series on MCF7, 0.908 µM with CCRF-CEM [10], 3.01 µM in [12] and 10.5 µM with PC-3. The “Ratio IC50” value with CCRF-CEM [5] is given as 1.57; with CCRF-CEM [15], 2.11. Also, the outcome with Nucleic Acid [16] was Active.

With `N[C@@H](Cc1ccc(N(CCCl)CCCl)cc1)C(=O)O`, in the series on Nucleic Acid [22], the Activity was determined as 39.7%.
